Experimental data reported in patent US5124351A, “Pharmaceutical compositions for the treatment of cancers susceptible to treatment with the copper complex of S-(methylthio)-DL-homocysteine or the L-enantimorph thereof” (The United States of America as represented by the …, priority 1989, dated 1992).
Where two headings read alike, the source gives them in different places.

Key:
L1210 cells [1] = test: Inhibition of growth of L1210 cells in culture (growth fraction); assay type: cell-based, murine; details: for stereospecificity result with 10 μM copper sulfate: 10 μM instead of 50 μM copper; for potentiation of SMETH by other metal ions: 10 μM; for protection from growth inhibition by copper-SMETH: copper-SMETH 15 and 30 μM; for IC50: potentiation of growth inhibition by DL-SMETH 75 or 100 μM, estimated by interpolation, read-out: Conc. for 50% further inhibition; for activity at 50 µM: L1210, L-SMETH 50 μM, read-out: growth (percent of control)
Procedure: Cytotoxicity of SMETH was assessed as follows. Cells were harvested at mid-log phase (8-10×10^5 cells/ml) washed with fresh growth medium and resuspended at 1×10^5 cells per ml as determined by a model ZBI Coulter Counter (Coulter Electronics, Hialeah, Fla.). Suspensions (7 ml) were added to 25 cm^2 Corning flasks, and SMETH, 20 mM in water, with or without copper sulfate, 2 mM in water were added as dilutions in water at no greater than 10 μl/ml of the cell suspension.
(§1) Cells were grown at 37° C. for designated times in tightly stoppered flasks and cell density was determined as indicated above. Cell volume distribution was monitored with a C1000 Channelyzer with standard size latex particles (Coulter) as reference. The results are expressed as growth fraction (N--No/No) or as percent growth fraction compared to appropriate controls.
(The cells also were incubated for 40 hours).
1 with S-(methylthio)-DL-homocysteine DL-SMETH, (See curve .smallcircle.--.smallcircle. in FIG. 4) and with the pure L-enantiomorph, L-SMETH, (See curve -- in FIG. 4).

L1210 cells [2] = test: Cell volume of L1210 cells (Channelyzer); assay type: cell-based, murine; details: growth inhibition
Procedure: as §1
(To obtain the data in FIG. 5, the cells were incubated with S-(methylthio)-L-homocysteine 15 μM, (curve .smallcircle.--.smallcircle.) and 30 μM (curve -- )together with their corresponding concentrations of copper sulfate). […] To obtain the data in FIG. 6, the cells were incubated for 14 hours in the medium described in the above section entitled Growth And Its Inhibition In Cell Culture, but containing only 1 mM glutamine, 1/2 the normal concentration. […] At the end of the incubation, the cell density in the inhibited culture was determined, and &he entire population centrifuged for analysis. An aliquot containing an equal number of cells from the control culture was removed for comparison, and both samples processed and analyzed as described in the above section entitled Analysis of Nucleoside Triphosphate Pools. […]
To obtain the data in FIG. 7, cells were incubated under standard conditions with S-(methylthio)-L -homocysteine and copper sulfate, each 15 μM, and cell volume monitored during the course of the incubation. […]

[3] = test system: L1210 cells in primary culture; test: Growth of L1210 cells in primary culture (obtained directly from the mouse) with copper; assay type: cell-based
Procedure: (The cells also were incubated for 40 hours). (See FIG. 3 of Mohindru, A., Fisher, J. M., and Rabinovitz, M. "2,9-Dimethyl-1,10-phenanthroline (neocuproine): A Potent, Copper-dependent Cytotoxin With Anti-tumor Activity.)" A concentration of 10 μM was more than adequate as a potentiating dose, but at this concentration other metal ions (Zn^++, Mn^++, CO^++, Ni^++, Cr^+++) were ineffective. […] Such cells fail to grow unless supplemented with an appropriate mercaptan or disulfide (See curve .smallcircle.--.smallcircle. in FIG. 3). […] Thus, both the organic and inorganic moieties of this invention show high specificity in this inhibition.

methionine metabolism = details: via its adenosyl derivative; cited from earlier work
endothelial cell = details: via copper catalyzed hydrogen peroxide generation; cited from earlier work
lymphoblasts = details: with added adenosine and deoxycoformycin; cited from earlier work
cellular methylations = details: cited from earlier work
purine biosynthesis = details: literature; cited from earlier work
[4] = Cecil and McPhee; cited from earlier work

## CSSCCC(N)C(=O)O (racemic) [DL-SMETH, S-(methylthio)-DL-homocysteine]
L1210 cells [1]
  inhibition of cellular proliferation: potent inhibitor of cellular proliferation
  stereospecificity result with 10 μM copper sulfate: nearly identical results
L1210 cells [1]; 40 hours, copper ion present
  range of inhibitory concentration of SMETH with copper ion: both reduced and narrowed in the presence of copper ion
L1210 cells [1]; DL-SMETH 75 μm alone
  percent inhibition: 46%
L1210 cells [1]; DL-SMETH 75 μm plus adenosine 10 μm, deoxycoformycin 20 μm
  percent inhibition: 46%
L1210 cells [1]; Mus musculus, L1210, 40 hours, without copper, read-out: threshold level
  minimal effective concentration: 25 µM
L1210 cells [1]; alone, 40 hours
  cytotoxicity to L1210 cells: cytotoxic to L1210 cells in culture when present at a broad range of micromolar concentrations
L1210 cells [1]; copper ion 50 μM
  relative activity of racemic form (vs D-SMETH as printed): half as active as D-SMETH
L1210 cells [1]; threshold SMETH 25 μM with micromolar copper ion, 40 hours
  effect of copper ion on inhibition by SMETH: completely inhibitory concentration
L1210 cells [2]
  cell volume change over a two day period: progressive increase in cell volume

## CSSC[C@H](N)C(=O)O [4-thiamethionine, S-(methylthio)-L-cysteine]
[3]; 4TM 50 μM
  growth support with copper ion: supported growth which was independent of copper ion concentration
[3]; L1210 primary culture
  cytotoxicity in the presence of copper: not cytotoxic in the presence of copper
  protection from growth inhibition by copper: protected L1210 cells in primary culture from growth inhibition by copper

## Nc1ncnc2c1ncn2[C@@H]1O[C@H](CO)[C@@H](O)[C@H]1O [Adenosine]
L1210 cells [1]; 10 μM alone
  toxicity of adenosine: not toxic to L1210 cells
L1210 cells [1]; 10 μM with non-toxic concentration of L-homocysteinethiolactone
  toxicity of adenosine with L-homocysteinethiolactone: toxic when added together with a non-toxic concentration of L-homocysteinethiolactone
L1210 cells [1]; toxic dose of SMETH
  effect of adenosine on SMETH potency: did not increase the potency of a toxic dose of SMETH

## [Co+2] [CO^++]
L1210 cells [1]
  potentiation of SMETH by other metal ions: ineffective

## [Cr+3] [Cr^+++]
L1210 cells [1]
  potentiation of SMETH by other metal ions: ineffective

## Nc1ccn([C@@H]2O[C@H](CO)[C@@H](O)[C@H]2O)c(=O)n1 [Cytidine]
L1210 cells [1]
  protection from growth inhibition by copper-SMETH: protected the cells from growth inhibition, and this protection was non-competitive

## CSSCC[C@@H](N)C(=O)O [D-SMETH]
L1210 cells [1]; 50 μM with 50 μM copper ion
  activity of D-SMETH: completely inactive

## NC(=O)CC[C@H](N)C(=O)O [Glutamine]
L1210 cells [1]; glutamine, millimolar concentrations
  protection against SMETH and SMETH plus Cu++: protected cells against SMETH and SMETH plug Cu^++

## N[C@@H](CCS)C(=O)O [Homocysteine]
Methionine metabolism
  toxicity by blocking methionine metabolism: toxic by blocking methionine metabolism
Endothelial cell
  endothelial cell damage: promote endothelial cell damage

## OCCSSCCO [Hydroxyethyl Disulfide (HEDS), Hydroxyethyl Disulfide]
[3]; high copper concentrations
  growth promotion and its inhibition by copper: promoted growth, but this was inhibited by high copper concentrations

## N[C@H]1CCSC1=O [L-Homocysteine Thiolactone]
L1210 cells [1]; L-homocysteine thiolactone 200 μM plus adenosine 10 μM, deoxycoformycin 20 μM
  percent inhibition: 39%
L1210 cells [1]; Mus musculus, L1210, L-homocysteine thiolactone 200 μM alone, read-out: percent inhibition
  inhibition at 200 µM: 5%
lymphoblasts
  growth block: can block growth

## CC(C)C[C@H](N)C(=O)O [L-Leucine]
L1210 cells [1]
  IC50: 1000 µM

## CSCC[C@H](N)C(=O)O [L-Methionine]
L1210 cells [1]
  IC50: 2000 µM

## CCCC[C@H](N)C(=O)O [L-Norleucine]
L1210 cells [1]
  IC50: 2500 µM

## CSSCC[C@H](N)C(=O)O [L-SMETH, S-(methylthio)-L-homocysteine]
L1210 cells [1]
  stereospecificity result with 10 μM copper sulfate: nearly identical results
L1210 cells [1]; Mus musculus, glutamine 0.5 mM
  activity at 50 µM: 15%
L1210 cells [1]; Mus musculus, glutamine 1.0 mM
  activity at 50 µM: 31%
L1210 cells [1]; Mus musculus, glutamine 2.0 mM
  activity at 50 µM: 58%
L1210 cells [1]; Mus musculus, glutamine 4.0 mM
  activity at 50 µM: 98%

## [Mn+2] [Mn^++]
L1210 cells [1]
  potentiation of SMETH by other metal ions: ineffective

## [Ni+2] [Ni^++]
L1210 cells [1]
  potentiation of SMETH by other metal ions: ineffective

## CCSC[C@H](N)C(=O)O [S-Ethyl-L-cysteine]
L1210 cells [1]
  IC50: 1000 µM

## Nc1ncnc2c1ncn2[C@@H]1O[C@H](CSCC[C@H](N)C(=O)O)[C@@H](O)[C@H]1O [S-adenosylhomocysteine]
Cellular methylations
  inhibition of cellular methylations: potent inhibitor of cellular methylations
Cellular methylations; listed as Adenosylhomocysteine
  inhibition of cellular methylations: potent inhibitor of cellular methylation processes

## O=c1ccn([C@@H]2O[C@H](CO)[C@@H](O)[C@H]2O)c(=O)[nH]1 [Uridine]
L1210 cells [1]
  protection from growth inhibition by copper-SMETH: ineffective in such protection

## [Zn+2] [Zn^++]
L1210 cells [1]
  potentiation of SMETH by other metal ions: ineffective

## N[C@H](C(=O)O)[C@@H]1CC(Cl)=NO1 [acivicin, (alphaS,5S)-alpha-amino-3-chloro-4,5-dihydro-5-isoxazoleacetizacid]
Purine biosynthesis
  sites blocked in purine biosynthesis: also block some sites in purine biosynthesis

## [N-]=[N+]=CC(=O)OC[C@H](N)C(=O)O [azaserine]
Purine biosynthesis
  sites blocked in purine biosynthesis: also block some sites in purine biosynthesis

## O=S(=O)([O-])[O-].[Cu+2] [copper ion, copper sulfate]
L1210 cells [1]; copper ion alone, at much higher levels than micromolar potentiating levels
  toxicity of the ion itself: non -toxic itself at much higher levels
L1210 cells [1]; with SMETH, 40 hours, "more than adequate"
  potentiating dose of copper ion: ≤ 10 µM

## [N-]=[N+]=CC(=O)CC[C@H](N)C(=O)O [diazo-oxo-norleucine, 6-diazo-5-oxo-norleucine]
Purine biosynthesis
  sites blocked in purine biosynthesis: also block some sites in purine biosynthesis

## Nc1nc2c(ncn2[C@@H]2O[C@H](CO)[C@@H](O)[C@H]2O)c(=O)[nH]1 [guanosine]
L1210 cells [1]
  protection from growth inhibition by copper-SMETH: ineffective in such protection

## N[C@@H](CCSSCC[C@H](N)C(=O)O)C(=O)O [homocystine]
[4]
  rate of reaction with silver ion relative to cystine: 267 times

## DL-Isopropionine
L1210 cells [1]
  IC50: 2000 µM
